According to PubChem BioAssay AID248 (DTP/NCI, 2004):
Values joined by “and” are separate entries in the source; they are usually repeats but may differ in a detail not shown here. Equal entries are not always repeated. Inconclusive results and toxic doses are left out. Cut-off read from the data, not from the text of the source: active = T/C of 150% or more; inactive = T/C below 125%.

System: L1210 leukemia ip in BDF1 mice, survival T/C
Assay: NCI In Vivo Anticancer Drug Screen. Data for tumor model L1210 Leukemia (intraperitoneal) in B6D2F1 (BDF1) mice
Details: endpoint: mean survival time, higher = longer survival
Method in brief: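 Read-out is survival time, reported as the treated-group measurement over the vehicle-control measurement.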

[1] = dose: 100.0 mg/kg/injection, schedule: Q01DX001 (ip), vehicle: saline with Tween-80
[2] = dose: 100.0 mg/kg/injection, schedule: Q01DX009 (ip), vehicle: saline with Tween-80
[3] = dose: 100.0 mg/kg/injection, schedule: Q04DX002 (ip), vehicle: saline with Tween-80
[4] = dose: 200.0 mg/kg/injection, schedule: Q01DX001 (ip), vehicle: saline with Tween-80
[5] = dose: 200.0 mg/kg/injection, schedule: Q01DX009 (ip), vehicle: saline with Tween-80
[6] = dose: 200.0 mg/kg/injection, schedule: Q04DX002 (ip), vehicle: saline with Tween-80
[7] = dose: 400.0 mg/kg/injection, schedule: Q01DX001 (ip), vehicle: saline with Tween-80
[8] = dose: 400.0 mg/kg/injection, schedule: Q04DX002 (ip), vehicle: saline with Tween-80
[9] = dose: 100.0 mg/kg/injection, schedule: Q04DX002 (ip), vehicle: Klucel (hydroxypropylcellulose) (HPC)
[10] = dose: 100.0 mg/kg/injection, schedule: Q01DX009 (ip), vehicle: saline
[11] = dose: 200.0 mg/kg/injection, schedule: Q01DX009 (ip), vehicle: saline
[12] = dose: 200.0 mg/kg/injection, schedule: Q04DX002 (ip), vehicle: Klucel (hydroxypropylcellulose) (HPC)
[13] = dose: 400.0 mg/kg/injection, schedule: Q04DX002 (ip), vehicle: Klucel (hydroxypropylcellulose) (HPC)

Measured: T/C

O=C(CCCCCCCCC(=O)N/N=C/c1ccccc1)N/N=C/c1ccccc1
inactive: [1] 96 % of control and 90 % of control | [2] 102 % of control and 92 % of control | [3] 93 % of control and 97 % of control | dose: 100.0 mg/kg/injection, schedule: Q04DX003 (ip), vehicle: saline with Tween-80 97 % of control | [4] 88 % of control | [5] 93 % of control and 97 % of control | [6] 95 % of control and 87 % of control | dose: 200.0 mg/kg/injection, schedule: Q04DX003 (ip), vehicle: saline with Tween-80 97 % of control | [7] 86 % of control and 91 % of control | dose: 400.0 mg/kg/injection, schedule: Q01DX009 (ip), vehicle: saline with Tween-80 91 % of control and 92 % of control | [8] 93 % of control and 90 % of control | dose: 400.0 mg/kg/injection, schedule: Q04DX003 (ip), vehicle: saline with Tween-80 92 % of control

CCCCOCCCNC1=C(Cl)C(=O)c2ccccc2C1=O
inactive: dose: 12.5 mg/kg/injection, schedule: Q01DX001 (ip), vehicle: carboxymethylcellulose (CMC) 92 % of control | dose: 25.0 mg/kg/injection, schedule: Q01DX001 (ip), vehicle: carboxymethylcellulose (CMC) 96 % of control | dose: 50.0 mg/kg/injection, schedule: Q01DX001 (ip), vehicle: carboxymethylcellulose (CMC) 105 % of control

COC(=O)Nc1ccc2nc(NC(=O)OC)[nH]c2c1
inactive: dose: 20.0 mg/kg/injection, schedule: Q01DX009 (ip), vehicle: other 97 % of control | dose: 40.0 mg/kg/injection, schedule: Q01DX009 (ip), vehicle: other 101 % of control | dose: 80.0 mg/kg/injection, schedule: Q01DX009 (ip), vehicle: other 104 % of control

CCCNC1(C(=O)O)CCCc2ccccc21 (stereo unspecified)
inactive: dose: 100.0 mg/kg/injection, schedule: Q04DX003 (ip), vehicle: Klucel (hydroxypropylcellulose) (HPC) 100 % of control | dose: 200.0 mg/kg/injection, schedule: Q04DX003 (ip), vehicle: Klucel (hydroxypropylcellulose) (HPC) 100 % of control | dose: 400.0 mg/kg/injection, schedule: Q04DX003 (ip), vehicle: Klucel (hydroxypropylcellulose) (HPC) 102 % of control

COc1ccccc1N=Nc1cc(C)c(C)cc1O
inactive: dose: 50.0 mg/kg/injection, schedule: Q01DX009 (ip), vehicle: saline with Tween-80 106 % of control | [2] 103 % of control | [5] 95 % of control

CC(C)(C)c1ccc(CBr)cc1
inactive: dose: 25.0 mg/kg/injection, schedule: Q04DX002 (ip), vehicle: Klucel (hydroxypropylcellulose) (HPC) 102 % of control | dose: 50.0 mg/kg/injection, schedule: Q04DX002 (ip), vehicle: Klucel (hydroxypropylcellulose) (HPC) 94 % of control | [9] 94 % of control

COc1ccc(Cl)cc1NC(=O)Oc1ccc(C=O)cc1OC
inactive: dose: 100.0 mg/kg/injection, schedule: Q01DX009 (ip), vehicle: Klucel (hydroxypropylcellulose) (HPC) 102 % of control and 114 % of control | dose: 200.0 mg/kg/injection, schedule: Q01DX009 (ip), vehicle: Klucel (hydroxypropylcellulose) (HPC) 98 % of control and 104 % of control | dose: 400.0 mg/kg/injection, schedule: Q01DX009 (ip), vehicle: Klucel (hydroxypropylcellulose) (HPC) 104 % of control and 109 % of control

CN(C)C(=O)Sc1ccc(SC(=O)N(C)C)cc1
inactive: [1] 97 % of control | [4] 97 % of control | [7] 97 % of control

ClC(Cl)=[C](Cl)[Hg][C](Cl)=C(Cl)Cl
inactive: dose: 0.39 mg/kg/injection, schedule: Q01DX009 (ip), vehicle: saline with Tween-80 96 % of control | dose: 0.78 mg/kg/injection, schedule: Q01DX009 (ip), vehicle: saline with Tween-80 97 % of control | dose: 1.56 mg/kg/injection, schedule: Q01DX009 (ip), vehicle: saline with Tween-80 93 % of control and 86 % of control

CC(=O)OS(=O)(=O)c1ccc(C)cc1
inactive: [10] 98 % of control | dose: 100.0 mg/kg/injection, schedule: Q04DX003 (ip), vehicle: saline 94 % of control | [11] 90 % of control | dose: 200.0 mg/kg/injection, schedule: Q04DX003 (ip), vehicle: saline 92 % of control | dose: 400.0 mg/kg/injection, schedule: Q04DX003 (ip), vehicle: saline 89 % of control

Cc1ccc(S(=O)(=O)N/N=C2/CC(C)(C)CC(=O)C2(C)C)cc1
inactive: [9] 102 % of control | [12] 102 % of control | [13] 102 % of control

CCCCCCCCCCC[CH2][Hg][Cl]
inactive: dose: 6.25 mg/kg/injection, schedule: Q04DX003 (ip), vehicle: Klucel (hydroxypropylcellulose) (HPC) 93 % of control

NC(=O)c1ncc(-c2ccccc2)[nH]c1=O
inactive: [10] 105 % of control | [11] 92 % of control

CC(O)c1cccc(Br)c1 (stereo unspecified)
inactive: [3] 100 % of control | [6] 90 % of control | [8] 90 % of control

COc1cccc(Oc2c(O)c3ccc(OC)cc3oc2=O)c1
inactive: dose: 100.0 mg/kg/injection, schedule: Q01DX001 (ip), vehicle: saline 100 % of control | dose: 200.0 mg/kg/injection, schedule: Q01DX001 (ip), vehicle: saline 97 % of control | dose: 400.0 mg/kg/injection, schedule: Q01DX001 (ip), vehicle: saline 97 % of control

c1ccc(Cc2ccccc2)cc1
inactive: [9] 101 % of control | [12] 105 % of control | [13] 92 % of control
